For this assay, the system named is CD8F1 mice, subcutaneous mammary adenocarcinoma, T/C%. The assay can be described thus: NCI In Vivo Anticancer Drug Screen. Data for tumor model Mammary Adenocarcinoma CD8F1 (subcutaneous) in CD8F1. As to conditions: higher = larger tumour. Put shortly: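 Tumor-bearing mice, transplantable model; readout survival or tumor size; value = treated (T) / vehicle control (C).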

Where [1] appears, read: endpoint: median tumor weight (est.), dose: 12.5 mg/kg/injection, schedule: Q07DX005 (ip), vehicle: saline with Tween-80.
[2] abbreviates: endpoint: median tumor weight (est.), dose: 25.0 mg/kg/injection, schedule: Q07DX005 (ip), vehicle: saline with Tween-80.
The mark [3] stands for this setting: endpoint: median tumor weight (est.), dose: 100.0 mg/kg/injection, schedule: Q07DX005 (ip), vehicle: saline with Tween-80.
Setting [4] is: endpoint: median tumor weight (est.), dose: 200.0 mg/kg/injection, schedule: Q07DX005 (ip), vehicle: saline with Tween-80.
Where [5] appears, read: endpoint: median tumor weight change, dose: 125.0 mg/kg/injection, schedule: Q01DX001 (ip), vehicle: Klucel (hydroxypropylcellulose) (HPC).
Where [6] appears, read: endpoint: median tumor weight (est.), dose: 25.0 mg/kg/injection, schedule: Q07DX005 (ip), vehicle: saline.
[7] abbreviates: endpoint: median tumor weight (est.), dose: 50.0 mg/kg/injection, schedule: Q07DX005 (ip), vehicle: saline.

For ten molecules, T/C results are on record in PubChem BioAssay AID220 (DTP/NCI, 2004).

Several values for one entry are separate records, joined by “and”; a condition that tells them apart may be missing. Equal entries are not always repeated. Inconclusive results are not listed.

In the case of `CCCCCCCCCCCCCCCCCCOCC(COP(=O)([O-])OCC[N+](C)(C)C)OC` (configuration not stated), the T/C is 97 % of control (endpoint: median tumor weight change, dose: 1.95 mg/kg/injection, schedule: Q01DX001 (ip), vehicle: saline); 67 % of control (endpoint: median tumor weight change, dose: 3.9 mg/kg/injection, schedule: Q01DX001 (ip), vehicle: saline); 95 % of control (endpoint: median tumor weight change, dose: 7.8 mg/kg/injection, schedule: Q01DX001 (ip), vehicle: saline); 48 % of control (endpoint: median tumor weight change, dose: 15.62 mg/kg/injection, schedule: Q01DX001 (ip), vehicle: saline); 79 % of control (endpoint: median tumor weight change, dose: 31.0 mg/kg/injection, schedule: Q01DX001 (ip), vehicle: suspension in saline); 100 % of control (endpoint: median tumor weight change, dose: 31.25 mg/kg/injection, schedule: Q01DX001 (ip), vehicle: saline). Besides, where the note is “endpoint: median tumor weight change, dose: 62.0 mg/kg/injection, schedule: Q01DX001 (ip), vehicle: suspension in saline”, the T/C was 75 % of control.
For `O=C1NC(=O)/C(=C/C=C/c2ccccc2)S1`, the T/C is, setting by setting: under setting [1], 66 % of control; under setting [2], 100 % of control; under setting [3], 81 % of control; under setting [4], 101 % of control.
For the molecule `Cc1ccc(S(=O)(=O)NC(=O)C2C(=O)CC3(CCCCC3)CC2=O)cc1`, the T/C was 93 % of control (endpoint: median tumor weight change, dose: 31.25 mg/kg/injection, schedule: Q01DX001 (ip), vehicle: Klucel (hydroxypropylcellulose) (HPC)); 101 % of control (endpoint: median tumor weight change, dose: 62.5 mg/kg/injection, schedule: Q01DX001 (ip), vehicle: Klucel (hydroxypropylcellulose) (HPC)); 122 % of control under setting [5].
`CC(=O)OCC1OC(n2ccc(N)nc2=O)C(OC(C)=O)C1OC(C)=O` (configuration not stated): the T/C (endpoint: median tumor weight (est.), dose: 25.0 mg/kg/injection, schedule: Q07DX005 (ip), vehicle: suspension in saline) is 159 % of control; the T/C (endpoint: median tumor weight (est.), dose: 50.0 mg/kg/injection, schedule: Q07DX005 (ip), vehicle: suspension in saline) is 70 % of control; the T/C (endpoint: median tumor weight (est.), dose: 100.0 mg/kg/injection, schedule: Q07DX005 (ip), vehicle: suspension in saline) was 87 % of control; the T/C (endpoint: median tumor weight (est.), dose: 200.0 mg/kg/injection, schedule: Q07DX005 (ip), vehicle: suspension in saline) was 88 % of control; the T/C (endpoint: median tumor weight (est.), dose: 400.0 mg/kg/injection, schedule: Q07DX005 (ip), vehicle: suspension in saline) is 96 % of control; the T/C (endpoint: median tumor weight (est.), dose: 800.0 mg/kg/injection, schedule: Q07DX005 (ip), vehicle: suspension in saline) was 6 % of control.
`O=C1c2cccc3cc([N+](=O)[O-])cc(c23)C(=O)N1CCN1CCCC1`: the T/C is 117 % of control (endpoint: median tumor weight change, dose: 7.0 mg/kg/injection, schedule: Q01DX001 (ip), vehicle: saline with Tween-80); 69 % of control (endpoint: median tumor weight change, dose: 14.06 mg/kg/injection, schedule: Q01DX001 (ip), vehicle: saline with Tween-80); 118 % of control (endpoint: median tumor weight change, dose: 28.12 mg/kg/injection, schedule: Q01DX001 (ip), vehicle: saline with Tween-80); 63 % of control (endpoint: median tumor weight change, dose: 31.25 mg/kg/injection, schedule: Q01DX001 (ip), vehicle: saline with Tween-80); 81 % of control (endpoint: median tumor weight change, dose: 56.25 mg/kg/injection, schedule: Q01DX001 (ip), vehicle: saline with Tween-80); 20 % of control (endpoint: median tumor weight change, dose: 62.5 mg/kg/injection, schedule: Q01DX001 (ip), vehicle: saline with Tween-80). The T/C (endpoint: median tumor weight change, dose: 112.5 mg/kg/injection, schedule: Q01DX001 (ip), vehicle: saline with Tween-80) was 18 % of control.
As to `O=C1N[C@H]2[C@H](CS[C@H]2CCCCC(=O)N(CCP(c2ccccc2)c2ccccc2)CCP(c2ccccc2)c2ccccc2)N1`, the T/C is 97 % of control under setting [5]; 70 % of control (endpoint: median tumor weight change, dose: 250.0 mg/kg/injection, schedule: Q01DX001 (ip), vehicle: Klucel (hydroxypropylcellulose) (HPC)); 85 % of control (endpoint: median tumor weight change, dose: 500.0 mg/kg/injection, schedule: Q01DX001 (ip), vehicle: Klucel (hydroxypropylcellulose) (HPC)); 55 % of control (endpoint: median tumor weight change, dose: 1000.0 mg/kg/injection, schedule: Q01DX001 (ip), vehicle: Klucel (hydroxypropylcellulose) (HPC)); 56 % of control (endpoint: median tumor weight change, dose: 2000.0 mg/kg/injection, schedule: Q01DX001 (ip), vehicle: Klucel (hydroxypropylcellulose) (HPC)).
With `CC(=O)C1(O)Cc2c(O)c3c(c(O)c2C(OC2CC(N)C(O)C(C)O2)C1)C(=O)c1ccccc1C3=O` (configuration not stated), the T/C reads like this: (endpoint: median tumor weight (est.), dose: 0.1 mg/kg/injection, schedule: Q07DX005 (ip), vehicle: saline) 81 % of control; (endpoint: median tumor weight (est.), dose: 0.2 mg/kg/injection, schedule: Q07DX005 (ip), vehicle: saline) 55 % of control; (endpoint: median tumor weight (est.), dose: 0.4 mg/kg/injection, schedule: Q07DX005 (ip), vehicle: saline) 48 % of control.
Regarding `[N-]=[N+]=CC(=O)CCC(N)C(=O)O` (configuration not stated), the T/C is, setting by setting: (endpoint: median tumor weight (est.), dose: 3.12 mg/kg/injection, schedule: Q04DX005 (ip), vehicle: saline) 22 % of control and 43 % of control; (endpoint: median tumor weight (est.), dose: 6.25 mg/kg/injection, schedule: Q04DX005 (ip), vehicle: saline) 31 % of control and 56 % of control; (endpoint: median tumor weight (est.), dose: 12.5 mg/kg/injection, schedule: Q04DX005 (ip), vehicle: saline) 30 % of control and 50 % of control; (endpoint: median tumor weight (est.), dose: 12.5 mg/kg/injection, schedule: Q07DX004 (ip), vehicle: saline) 85 % of control and 105 % of control; (endpoint: median tumor weight (est.), dose: 12.5 mg/kg/injection, schedule: Q07DX005 (ip), vehicle: saline) 23 % of control and 30 % of control; (endpoint: median tumor weight (est.), dose: 25.0 mg/kg/injection, schedule: Q01DX001 (ip), vehicle: saline) 35 % of control. Moreover, the T/C is, setting by setting: (endpoint: median tumor weight (est.), dose: 25.0 mg/kg/injection, schedule: Q07DX004 (ip), vehicle: saline) 23 % of control and 34 % of control; under setting [6], 47 % of control; (endpoint: median tumor weight (est.), dose: 50.0 mg/kg/injection, schedule: Q01DX001 (ip), vehicle: saline) 35 % of control; (endpoint: median tumor weight (est.), dose: 50.0 mg/kg/injection, schedule: Q07DX004 (ip), vehicle: saline) 21 % of control and 31 % of control; under setting [7], 16 % of control and 33 % of control; (endpoint: median tumor weight (est.), dose: 100.0 mg/kg/injection, schedule: Q01DX001 (ip), vehicle: saline) 43 % of control. The T/C (endpoint: median tumor weight (est.), dose: 100.0 mg/kg/injection, schedule: Q07DX005 (ip), vehicle: saline) was 6 % of control.
`O=C1N(Cl)C(=O)C(c2ccc(Cl)cc2)(c2ccc(Cl)cc2)N1Cl`: the T/C by setting is: under setting [1], 98 % of control; under setting [2], 119 % of control; (endpoint: median tumor weight (est.), dose: 50.0 mg/kg/injection, schedule: Q07DX005 (ip), vehicle: saline with Tween-80) 91 % of control; under setting [3], 104 % of control; under setting [4], 113 % of control; (endpoint: median tumor weight (est.), dose: 400.0 mg/kg/injection, schedule: Q07DX005 (ip), vehicle: saline with Tween-80) 43 % of control. The T/C runs as follows: (endpoint: median tumor weight change, dose: 12.5 mg/kg/injection, schedule: Q01DX001 (ip), vehicle: saline with Tween-80) 98 % of control; (endpoint: median tumor weight change, dose: 25.0 mg/kg/injection, schedule: Q01DX001 (ip), vehicle: saline with Tween-80) 68 % of control; (endpoint: median tumor weight change, dose: 50.0 mg/kg/injection, schedule: Q01DX001 (ip), vehicle: saline with Tween-80) 71 % of control; (endpoint: median tumor weight change, dose: 100.0 mg/kg/injection, schedule: Q01DX001 (ip), vehicle: saline with Tween-80) 45 % of control and 48 % of control; (endpoint: median tumor weight change, dose: 200.0 mg/kg/injection, schedule: Q01DX001 (ip), vehicle: saline with Tween-80) 44 % of control and 53 % of control; (endpoint: median tumor weight change, dose: 400.0 mg/kg/injection, schedule: Q01DX001 (ip), vehicle: saline with Tween-80) 24 % of control.
Consider `Cc1cn(C2CC(O)C(CO)O2)c(=O)[nH]c1=O` (configuration not stated), for which the T/C under setting [6] was 88 % of control and the T/C under setting [7] was 107 % of control.
